Results as given in ChEMBL document CHEMBL4354881, “Optimization of Potent ATAD2 and CECR2 Bromodomain Inhibitors with an Atypical Binding Mode” (J Med Chem, 2020).

How the values were obtained:
[1] = target: T1, ATPase family AAA domain-containing protein 2B (Homo sapiens, UniProt Q9ULI0); assay: Binding affinity to human partial length ATAD2B (Q955 to R1082 residues) expressed in bacterial expression system by BROMOscan assay
T1 sequence (Q9ULI0 whole entry): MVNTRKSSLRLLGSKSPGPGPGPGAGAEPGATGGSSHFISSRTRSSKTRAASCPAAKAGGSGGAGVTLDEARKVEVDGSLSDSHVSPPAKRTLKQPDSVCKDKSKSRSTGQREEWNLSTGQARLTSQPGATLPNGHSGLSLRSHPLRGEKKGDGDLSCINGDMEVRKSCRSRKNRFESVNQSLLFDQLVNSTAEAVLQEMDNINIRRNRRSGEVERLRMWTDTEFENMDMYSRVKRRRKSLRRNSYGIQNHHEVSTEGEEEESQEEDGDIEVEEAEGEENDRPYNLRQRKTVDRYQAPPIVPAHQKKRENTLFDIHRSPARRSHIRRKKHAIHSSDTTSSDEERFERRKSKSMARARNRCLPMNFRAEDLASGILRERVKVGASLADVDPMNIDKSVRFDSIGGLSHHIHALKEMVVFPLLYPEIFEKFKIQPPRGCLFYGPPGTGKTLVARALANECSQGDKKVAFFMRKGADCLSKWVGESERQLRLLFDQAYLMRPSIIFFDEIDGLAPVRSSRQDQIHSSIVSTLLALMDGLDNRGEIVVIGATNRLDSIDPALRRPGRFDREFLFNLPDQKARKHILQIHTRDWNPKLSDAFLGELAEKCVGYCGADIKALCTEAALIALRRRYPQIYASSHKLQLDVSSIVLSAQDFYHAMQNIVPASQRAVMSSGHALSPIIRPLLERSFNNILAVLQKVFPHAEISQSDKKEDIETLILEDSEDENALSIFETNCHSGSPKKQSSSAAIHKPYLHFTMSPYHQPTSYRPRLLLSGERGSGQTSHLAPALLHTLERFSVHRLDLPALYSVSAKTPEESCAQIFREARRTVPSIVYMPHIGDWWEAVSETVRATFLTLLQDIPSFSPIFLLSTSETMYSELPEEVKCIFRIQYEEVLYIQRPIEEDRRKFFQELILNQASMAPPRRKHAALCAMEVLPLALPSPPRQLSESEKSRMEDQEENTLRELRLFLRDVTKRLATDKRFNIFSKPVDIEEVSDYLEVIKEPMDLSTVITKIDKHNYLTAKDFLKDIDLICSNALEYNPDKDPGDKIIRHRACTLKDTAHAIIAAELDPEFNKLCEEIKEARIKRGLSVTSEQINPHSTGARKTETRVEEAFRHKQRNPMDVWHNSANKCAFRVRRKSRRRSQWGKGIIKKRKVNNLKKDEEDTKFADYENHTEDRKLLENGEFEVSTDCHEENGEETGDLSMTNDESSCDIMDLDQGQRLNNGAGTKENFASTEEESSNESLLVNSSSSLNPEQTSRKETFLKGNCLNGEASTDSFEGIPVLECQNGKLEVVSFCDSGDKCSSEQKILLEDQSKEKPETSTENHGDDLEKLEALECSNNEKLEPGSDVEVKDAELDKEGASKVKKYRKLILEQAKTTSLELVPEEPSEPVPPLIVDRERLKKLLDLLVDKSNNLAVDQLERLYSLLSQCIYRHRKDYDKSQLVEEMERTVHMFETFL

[2] = target: Bromodomain-containing protein 4 (Homo sapiens, UniProt O60885); assay: Displacement of Alexa Fluor 647-labeled ligand from BRD4 BD2 (unknown origin) measured after 30 mins by TR-FRET assay
[3] = target: Chromatin remodeling regulator CECR2 (Homo sapiens, UniProt Q9BXF3); assay: Inhibition of BSP-BODIPY binding to Nanoluc-tagged CECR2 (unknown origin) expressed in HEK293 cells measured after 4 to 6 hrs by NanoBRET assay; type: cell-based
Chromatin remodeling regulator CECR2, sequence (Q9BXF3 whole entry, the tested form may be a part): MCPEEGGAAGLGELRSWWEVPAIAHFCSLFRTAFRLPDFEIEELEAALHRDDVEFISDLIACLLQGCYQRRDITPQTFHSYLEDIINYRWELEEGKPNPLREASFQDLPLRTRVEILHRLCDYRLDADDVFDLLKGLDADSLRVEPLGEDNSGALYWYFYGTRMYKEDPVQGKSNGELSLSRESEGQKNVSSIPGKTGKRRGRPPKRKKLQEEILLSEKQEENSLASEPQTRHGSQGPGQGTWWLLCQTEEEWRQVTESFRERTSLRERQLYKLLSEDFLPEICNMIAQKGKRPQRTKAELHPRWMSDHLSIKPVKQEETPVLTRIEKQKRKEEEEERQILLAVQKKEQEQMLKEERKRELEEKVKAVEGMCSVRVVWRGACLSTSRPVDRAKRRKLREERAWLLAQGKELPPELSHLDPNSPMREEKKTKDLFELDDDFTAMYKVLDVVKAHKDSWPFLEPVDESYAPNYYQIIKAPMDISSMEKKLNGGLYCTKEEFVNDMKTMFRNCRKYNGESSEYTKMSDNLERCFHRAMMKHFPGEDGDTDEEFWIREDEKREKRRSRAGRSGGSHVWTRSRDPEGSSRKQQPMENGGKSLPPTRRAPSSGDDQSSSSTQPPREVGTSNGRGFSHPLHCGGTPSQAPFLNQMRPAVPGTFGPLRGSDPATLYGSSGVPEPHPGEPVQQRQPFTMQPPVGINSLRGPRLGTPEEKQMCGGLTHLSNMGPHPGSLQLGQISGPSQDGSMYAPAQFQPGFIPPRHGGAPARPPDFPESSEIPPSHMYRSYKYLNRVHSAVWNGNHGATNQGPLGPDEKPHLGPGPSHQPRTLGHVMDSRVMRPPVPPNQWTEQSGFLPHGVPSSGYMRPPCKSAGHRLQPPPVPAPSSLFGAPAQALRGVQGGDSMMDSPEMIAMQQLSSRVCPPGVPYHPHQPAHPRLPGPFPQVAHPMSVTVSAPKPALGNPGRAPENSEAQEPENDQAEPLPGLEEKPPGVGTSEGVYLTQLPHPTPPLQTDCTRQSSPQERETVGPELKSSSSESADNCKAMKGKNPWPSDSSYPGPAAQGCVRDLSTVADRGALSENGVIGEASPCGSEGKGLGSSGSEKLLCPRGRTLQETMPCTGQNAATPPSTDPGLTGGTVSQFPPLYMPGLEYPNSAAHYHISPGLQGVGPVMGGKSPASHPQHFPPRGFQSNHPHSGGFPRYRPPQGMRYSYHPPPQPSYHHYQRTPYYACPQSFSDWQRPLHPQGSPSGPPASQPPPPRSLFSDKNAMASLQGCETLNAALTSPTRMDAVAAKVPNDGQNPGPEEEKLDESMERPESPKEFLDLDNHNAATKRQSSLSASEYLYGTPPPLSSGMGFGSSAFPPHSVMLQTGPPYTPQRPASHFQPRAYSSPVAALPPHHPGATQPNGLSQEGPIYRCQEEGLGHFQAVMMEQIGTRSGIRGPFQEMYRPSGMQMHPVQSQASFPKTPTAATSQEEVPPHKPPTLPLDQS

[4] = target: T2, Bromodomain-containing protein 1 (Homo sapiens, UniProt O95696); assay: Binding affinity to human partial length BRD1 (E556 to A688 residues) expressed in bacterial expression system by BROMOscan assay
T2 sequence (O95696 whole entry): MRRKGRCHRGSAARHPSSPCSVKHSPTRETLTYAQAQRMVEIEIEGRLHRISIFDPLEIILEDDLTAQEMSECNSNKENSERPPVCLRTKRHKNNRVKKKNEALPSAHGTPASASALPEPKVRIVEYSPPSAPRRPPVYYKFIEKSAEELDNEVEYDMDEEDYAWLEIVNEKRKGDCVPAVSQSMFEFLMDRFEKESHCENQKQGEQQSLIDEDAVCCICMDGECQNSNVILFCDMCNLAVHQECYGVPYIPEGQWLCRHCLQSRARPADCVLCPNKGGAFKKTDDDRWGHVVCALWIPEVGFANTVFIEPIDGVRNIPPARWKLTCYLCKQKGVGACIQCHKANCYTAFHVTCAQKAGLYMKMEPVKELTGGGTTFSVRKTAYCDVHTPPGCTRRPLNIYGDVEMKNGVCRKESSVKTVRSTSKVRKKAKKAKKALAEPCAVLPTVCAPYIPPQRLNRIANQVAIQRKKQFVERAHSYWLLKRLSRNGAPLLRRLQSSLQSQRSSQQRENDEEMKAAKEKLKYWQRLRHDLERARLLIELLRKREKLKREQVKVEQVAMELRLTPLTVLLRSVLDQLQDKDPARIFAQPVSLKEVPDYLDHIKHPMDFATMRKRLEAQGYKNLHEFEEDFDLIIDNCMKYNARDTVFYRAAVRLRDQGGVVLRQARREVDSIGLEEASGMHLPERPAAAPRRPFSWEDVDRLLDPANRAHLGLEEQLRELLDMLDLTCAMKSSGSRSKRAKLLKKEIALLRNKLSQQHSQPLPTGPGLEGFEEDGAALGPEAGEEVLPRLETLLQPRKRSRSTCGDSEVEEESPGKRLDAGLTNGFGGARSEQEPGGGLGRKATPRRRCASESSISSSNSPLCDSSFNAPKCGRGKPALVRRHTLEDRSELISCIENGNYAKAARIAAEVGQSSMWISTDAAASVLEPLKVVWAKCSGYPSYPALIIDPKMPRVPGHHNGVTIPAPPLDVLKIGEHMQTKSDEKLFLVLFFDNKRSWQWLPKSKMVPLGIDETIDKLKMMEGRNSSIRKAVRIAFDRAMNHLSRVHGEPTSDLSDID

[5] = target: Histone acetyltransferase KAT2A (Homo sapiens, UniProt Q92830); assay: Binding affinity to human partial length GCN5L2 (E726 to K837 residues) expressed in bacterial expression system by BROMOscan assay
Histone acetyltransferase KAT2A, sequence (Q92830 whole entry, the tested form may be a part): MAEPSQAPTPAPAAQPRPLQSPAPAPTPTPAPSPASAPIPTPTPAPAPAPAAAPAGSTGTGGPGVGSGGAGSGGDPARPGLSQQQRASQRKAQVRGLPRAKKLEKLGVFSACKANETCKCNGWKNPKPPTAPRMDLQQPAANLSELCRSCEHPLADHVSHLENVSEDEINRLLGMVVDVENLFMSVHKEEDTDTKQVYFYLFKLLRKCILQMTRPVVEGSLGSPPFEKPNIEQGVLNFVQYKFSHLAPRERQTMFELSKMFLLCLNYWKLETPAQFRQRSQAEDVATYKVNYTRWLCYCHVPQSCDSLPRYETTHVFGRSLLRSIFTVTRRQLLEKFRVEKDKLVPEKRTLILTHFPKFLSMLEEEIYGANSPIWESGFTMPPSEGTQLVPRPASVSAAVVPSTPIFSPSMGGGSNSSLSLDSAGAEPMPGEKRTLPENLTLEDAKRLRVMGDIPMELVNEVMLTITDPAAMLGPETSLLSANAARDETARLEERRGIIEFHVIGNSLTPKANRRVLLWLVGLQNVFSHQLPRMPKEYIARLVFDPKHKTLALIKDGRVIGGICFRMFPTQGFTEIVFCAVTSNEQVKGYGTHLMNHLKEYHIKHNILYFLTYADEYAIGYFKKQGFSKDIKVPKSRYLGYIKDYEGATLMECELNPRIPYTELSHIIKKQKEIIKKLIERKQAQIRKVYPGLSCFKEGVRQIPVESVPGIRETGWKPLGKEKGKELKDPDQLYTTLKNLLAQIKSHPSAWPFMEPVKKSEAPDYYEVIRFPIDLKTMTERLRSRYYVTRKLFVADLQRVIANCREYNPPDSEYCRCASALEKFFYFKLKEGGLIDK

[6] = target: Bromodomain-containing protein 4 (Homo sapiens, UniProt O60885, Y390A); assay: Displacement of Alexa Fluor 647-labeled ligand from BRD4 BD1 Y390A mutant (1 to 477 residue) (unknown origin) measured after 30 mins by TR-FRET assay
[7] = target: Bromodomain adjacent to zinc finger domain protein 2A (Homo sapiens, UniProt Q9UIF9); assay: Binding affinity to human partial length BAZ2A (M1792 to L1905 residues) expressed in bacterial expression system by BROMOscan assay
Bromodomain adjacent to zinc finger domain protein 2A, sequence (Q9UIF9 whole entry, the tested form may be a part): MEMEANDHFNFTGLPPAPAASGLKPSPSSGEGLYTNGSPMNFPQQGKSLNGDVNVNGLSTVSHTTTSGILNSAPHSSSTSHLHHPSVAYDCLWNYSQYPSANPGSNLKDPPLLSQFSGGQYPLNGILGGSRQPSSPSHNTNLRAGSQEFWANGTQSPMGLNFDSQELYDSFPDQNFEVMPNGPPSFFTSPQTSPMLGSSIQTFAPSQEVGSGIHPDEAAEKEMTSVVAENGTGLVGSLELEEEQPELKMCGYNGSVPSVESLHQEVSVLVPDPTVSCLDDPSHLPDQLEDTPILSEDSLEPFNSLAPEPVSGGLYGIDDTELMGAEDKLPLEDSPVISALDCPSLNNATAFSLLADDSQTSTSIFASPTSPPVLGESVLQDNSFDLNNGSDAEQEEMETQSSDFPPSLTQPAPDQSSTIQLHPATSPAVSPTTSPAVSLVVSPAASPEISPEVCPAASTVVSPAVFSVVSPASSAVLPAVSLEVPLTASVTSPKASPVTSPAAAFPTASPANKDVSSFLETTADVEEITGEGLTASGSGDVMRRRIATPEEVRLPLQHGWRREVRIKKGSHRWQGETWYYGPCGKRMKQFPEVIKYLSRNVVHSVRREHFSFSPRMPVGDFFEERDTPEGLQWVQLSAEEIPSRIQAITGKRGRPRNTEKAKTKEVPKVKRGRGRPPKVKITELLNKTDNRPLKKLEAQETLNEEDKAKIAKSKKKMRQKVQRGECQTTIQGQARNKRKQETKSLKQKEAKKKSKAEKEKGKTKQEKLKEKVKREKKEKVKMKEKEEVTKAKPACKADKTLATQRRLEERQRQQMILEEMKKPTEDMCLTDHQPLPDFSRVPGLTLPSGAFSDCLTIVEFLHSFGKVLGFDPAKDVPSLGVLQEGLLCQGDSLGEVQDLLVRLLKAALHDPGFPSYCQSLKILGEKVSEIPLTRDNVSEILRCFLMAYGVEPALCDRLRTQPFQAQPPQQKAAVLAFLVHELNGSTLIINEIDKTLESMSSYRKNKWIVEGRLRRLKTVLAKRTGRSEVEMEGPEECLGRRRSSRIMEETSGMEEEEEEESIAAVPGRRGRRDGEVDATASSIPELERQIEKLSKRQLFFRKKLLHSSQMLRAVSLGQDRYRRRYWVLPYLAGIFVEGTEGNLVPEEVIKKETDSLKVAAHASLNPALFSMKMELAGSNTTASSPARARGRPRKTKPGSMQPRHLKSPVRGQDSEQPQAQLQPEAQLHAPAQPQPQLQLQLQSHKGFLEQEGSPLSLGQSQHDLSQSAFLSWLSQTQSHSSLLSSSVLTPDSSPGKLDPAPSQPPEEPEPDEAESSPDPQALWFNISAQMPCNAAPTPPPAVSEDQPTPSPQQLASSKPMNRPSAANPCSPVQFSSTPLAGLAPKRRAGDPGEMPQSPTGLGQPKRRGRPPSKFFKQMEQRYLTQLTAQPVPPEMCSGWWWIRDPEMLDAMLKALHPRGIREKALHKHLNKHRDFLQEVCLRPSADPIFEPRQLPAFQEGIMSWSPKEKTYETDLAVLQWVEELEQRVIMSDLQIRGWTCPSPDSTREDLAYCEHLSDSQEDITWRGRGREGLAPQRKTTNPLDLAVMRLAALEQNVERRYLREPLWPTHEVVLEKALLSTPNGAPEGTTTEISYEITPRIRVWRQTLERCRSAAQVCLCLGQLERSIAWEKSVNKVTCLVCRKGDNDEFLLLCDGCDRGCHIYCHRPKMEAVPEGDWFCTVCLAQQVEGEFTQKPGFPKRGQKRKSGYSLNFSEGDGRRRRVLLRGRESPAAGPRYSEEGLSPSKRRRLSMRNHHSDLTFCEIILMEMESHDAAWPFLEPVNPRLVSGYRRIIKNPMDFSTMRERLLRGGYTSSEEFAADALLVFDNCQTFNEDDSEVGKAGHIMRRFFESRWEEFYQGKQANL

Structure (SMILES): C[C@H]1CCN(S(=O)(=O)c2cc(NC(=O)CN3C(=O)N[C@@](C)(C4CC4)C3=O)ccc2Br)C1
- Kd [1]: 20 nM
- IC50 [2]: 12600 nM
- IC50 [3]: 251 nM
- Kd [4]: 126 nM
- Kd [5]: 251 nM
- IC50 [6]: > 50100 nM
- Kd [7]: 15.8 nM
